Like-named read-outs stand apart in the source and are kept apart here.
What was measured:
[1] = tested on: 129 Sv/J autosomal Alport mice; assay type: in vivo
Experimental: Immunofluorescence microscopy. Fresh frozen kidneys were sectioned at 8-μm and acetone fixed. Sections were incubated overnight at 4° C. in primary antibody solution. The dual stain consisting of rat anti-mouse Laminin-α2 antibody (Sigma-Aldrich, St. Louis, Mo.) at 1:200 and rabbit anti-mouse phospho-FAK 397 antibody at 1:25 as well as the dual stain of goat anti-mouse Integrin α8 antibody (R & D Systems, Minneapolis, Minn.) at 1:1000 and rabbit anti-mouse Laminin-5 antibody, at 1:1000 were diluted in 0.3% PBST+5% FBS. Rabbit anti-mouse Fibronectin antibody at 1:300 and rat anti-mouse CD11b antibody at 1:100 were diluted in 7% Milk. Slides were rinsed with 1×PBS and incubated with the appropriate Alexa Fluor donkey secondary antibodies at 1:300 for 1 hour at room temperature. They were then rinsed again with 1×PBS and mounted with Vectashield Mounting Medium with DAPI (Vector, Burlingame, Calif.). The dual stain of mouse-anti rat Laminin α1 antibody at 1:300 and rabbit anti-mouse phospho-FAK 397 antibody at 1:25 were diluted in 0.3% PBST+5% NGS and incubated overnight at 4° C. Slides were rinsed with 1×PBS and incubated with the appropriate Alexa Fluor goat secondary antibodies at 1:300 for 1 hour at room temperature. They were then rinsed again with 1×PBS and mounted with Vectashield Mounting Medium with DAPI.
Real time qRT-PCR. Total RNA was reverse transcribed using […]® III (Invitrogen, Life Technologies, Grand Island, N.Y.) with Oligo(dT)20 Primer (Invitrogen). The real time PCR was carried out using TAQMAN® Gene Expression Master Mix (Applied Biosystems, Life Technologies, Grand Island, N.Y.), and quantified using STEPONEPLUS™ Real-Time PCR System (Applied Biosystems). Samples were normalized to Mouse GAPDH Endogenous Control VIC® Probe (Applied Biosystems catalogue #4352339E) which was run alongside MMP-9 (Catalog #4331182, ID# Mm00442991_m1), MMP-10 (Catalog #4331182, ID# Mm00444630_m1), MMP-12 (Catalog #4331182, ID# Mm00500554_m1), IL-6 (Catalog #4331182, ID# Mm00446190_m1), NFKbia (Catalog #4331182, ID# Mm00477798_m1), and FAK (Catalog #4331182, ID# Mm00433209_m1) TAQMAN® Gene Expression Assay Probes (Applied Biosystems). Samples were run in triplicate with a final reaction volume of 20 ul with the following cycling parameters: 50° C. for 2 min, 95° C. for 10 min, followed by 40 cycles of a two-step PCR consisting of 95° C. for 15 s and 60° C. for 1 min. Relative changes in gene expression were determined by calculating the fold change using the comparative CT method of 2^−ΔΔCT. Data are expressed as the mean with standard deviation for at least four independent RNA samples per data point.
Treatment of mice with TAE226. Four Col 4A3 knockout mice from 129 Sv/J background were given 50 mg/Kg TAE226 (ChemScene, LLC Monmouth Junction, N.J.) 1× daily by gavage needle starting at two weeks of age until seven weeks old. The TAE226 was diluted in a 0.5% carboxy methyl cellulose suspension. Three control Col 4a3 knockout mice of the same age were given 0.5% CMC suspension alone and served as controls.
Albumin and creatinine assays. Urine was collected weekly and albumin concentrations were analyzed as instructed using a mouse albumin ELISA kit #MSAKT from Molecular Innovations (Novi, Mich.). Albumin levels were normalized to creatinine using QuantiChrom Creatinine Assay Kit (DICT-500) (BioAssay Systems, Hayward, Calif.) as instructed.
Transmission electron microscopy. Transmission electron microscopy was performed as described previously (Cosgrove et al., 2000, Am J Pathol; 157: 1649-1659).

[2] = tested on: primary cultured mesangial cells; test: Transwell Migration Assay of primary mesangial cells with TAE226; assay type: cell-based, mouse; details: 0.5 μM TAE226; relative to untreated cells
Experimental: MES Migration (insert). Transwell cell migration assays were performed as described by Daniel et al. (Daniel et al., 2012, Lab Invest; 92(6): 812-26) with some modifications. 8 micron, 24-well plate control inserts (BD Bioscience, Bedford, Mass.) were coated overnight at 4° C. with 100 μl of 0.1% gelatin/PBS then washed 1× with PBS. MES cultures were incubated in 1% FCS overnight, then 0.05% BSA-containing media for at least 8 hours, washed 1× with PBS and carefully tryspinized to ensure a single cell suspension and limited “clumping” of cells. After serum-neutralization and subsequent centrifugation, ˜100,000 cells were resuspended in 1.5 mls of 0.05% BSA media containing activators/inhibitors. The wells of a 24-well plate were filled with 0.75 mls of 10% FCS-containing media plus activators/inhibitors (excluding 0.05% BSA control well). 0.5 ml of cell-suspension was loaded into the gelatin-coated insert and the insert placed in a well. Wells were visually inspected for bubbles beneath insert and equal distribution of cell-suspension. Cells were allowed to migrate overnight (˜18 hrs). […] Inserts were air dried and counted at 100× magnification. Five fields were counted on each insert including one center and four periphery areas. Data was expressed as relative to 10% FCS control well (set equal to one). […]

[3] = tested on: glomerular injury; details: lipopolysaccharide or anti-GBM antibody administration; cited from earlier work
[4] = 50 mg/Kg daily, 2 to 7 weeks, relative to vehicle
[5] = at 6 weeks of age, relative to vehicle
[6] = by 7 weeks of age, relative to vehicle

CNC(=O)c1ccccc1Nc1nc(Nc2ccc(N3CCOCC3)cc2OC)ncc1Cl [TAE226]
pFAK immunostaining in podocytes in vivo ([1]; 50 mg/Kg 1× daily by gavage, two to seven weeks of age): abolished | Glomerular mRNA expression level of MMP-9 [1, 4]: significantly reduced | Glomerular mRNA expression level of MMP-10 [1, 4]: significantly reduced | Glomerular mRNA expression level of MMP-12 [1, 4]: significantly reduced | Monocytic infiltration (CD11b immunostaining) ([1]; 7 weeks of age): remarkably robust reduction | Renal scarring (fibronectin immunostaining) ([1]; 7 weeks of age): remarkably robust reduction | GBM architecture (transmission electron microscopy) ([1]; 7 weeks of age, relative to vehicle): markedly improved | Glomerulosclerosis ([1]; Alport mice): ameliorated | Blood urea nitrogen levels [1, 5]: significant reduction | Proteinuria [1, 5]: significant reduction | Blood urea nitrogen levels [1, 6]: loose significance | Proteinuria [1, 6]: loose significance | Mesangial process invasion of glomerular capillary loops ([1]; integrin α8 / laminin α5 immunostaining, vs vehicle): amelioration | Cell migratory potential of mesangial cells [2]: significantly reduced | Protection against glomerular injury [3]: protect against glomerular injury
